# Patent US7847065B2, “CXADRL1 polypeptides relating to human cancers” (Oncotherapy Science, Inc., priority 2002, dated 2010)
# Where two headings read alike, the source gives them in different places. Ends that are not written are not given here. Peptide text beside a SMILES is read from it.
# Assays:
# MKN-28 cells = test: MTT assay after transfection of S-oligonucleotides, MKN-28; type: cell-based, human; settings: six days after transfection
# Procedure: (§1) Cells plated onto 10-cm dishes (2×10^5 cells/dish) were transfected either with plasmid, or synthetic S-oligonucleotides of CXADRL1, GCUD1, or RNF43 using LIPOFECTIN Reagent (GIBCO BRL). Then the cells were cultured with the addition of an appropriate concentration of geneticin for six to twelve days. The cells were then fixed with 100% methanol and stained by Giemsa solution. Sequences of the S-oligonucleotides were as follows:
# (§2) Cells plated at a density of 5×10^5 cells/100 mm dish were transfected in triplicate with sense or antisense S-oligonucleotides designated to suppress the expression of CXADRL1, GCUD1, or RNF43. […] Subsequently, the cells were lysed by the addition of 1 ml of 0.01 N HCl/10% SDS and the absorbance of lysates was measured with ELISA plate reader at a test wavelength of 570 nm (reference, 630 nm). The cell viability was represented by the absorbance compared to that of control cells.
# [1] = test system: MKN-1 gastric cancer cells; test: MTT assay after transfection of S-oligonucleotides, MKN-1; type: cell-based, human; settings: MKN-1 cells, six days after transfection
# Procedure: as §1, §2
# T2 cells (HLA-A*0201) [2] = test system: T2 cells (HLA-A*0201)
# Procedure: (§3) Target cells were labeled with 100 μCi of Na2^51CrO4 (Perkin Elmer Life Sciences) for 1 h at 37° C. in a CO2 incubator. When peptide-pulsed targets were used, target cells were incubated with the addition of 20 μg/ml of the peptide for 16 h at 37° C. before the labeling with Na2^51CrO4. Target cells were rinsed and mixed with effectors at a final volume of 0.2 ml in round-bottom microtiter plates. The plates were centrifuged (4 minutes at 800×g) to increase cell-to-cell contact and placed in a CO2 incubator at 37° C. After 4 h of incubation, 0.1 ml of the supernatant was collected from each well and the radioactivity was determined with a gamma counter. In case of evaluating cytotoxicity against target cells that endogenously express RNF43, CXADRL1, or GCUD1, the cytolytic activity was tested in the presence of a 30-fold excess of unlabeled K562 cells to reduce any non-specific lysis due to NK-like effectors. […] The MHC restriction was examined by blocking assay, measuring the inhibition of the cytotoxicity with anti-HLA-class I (W6/32) antibody and anti-HLA-class II antibody, or anti-CD4 antibody and anti-CD8 antibody (DAKO).
# (§4) The percentage of specific cytotoxicity was determined by calculating the percentage of specific ^51Cr-release by the following formula: {(cpm of the test sample release−cpm of the spontaneous release)/(cpm of the maximum release−cpm of the spontaneous release)}×100. Spontaneous release was determined by incubating the target cells alone in the absence of effectors, and the maximum release was obtained by incubating the targets with 1N HCl. All determinants were done in duplicate, and the standard errors of the means were consistently below 10% of the value of the mean.
# SNU475 cells = test: Blocking assay with antibodies, target SNU475; type: cell-based, human
# Procedure: as §3
# MKN74 = test: Cytotoxicity of CTL clone against tumor cell line MKN74; type: cell-based, human; settings: expresses CXADRL1 but not HLA-A*0201
# Procedure: (§5) Target cells were labeled with 100 μCi of Na2^51CrO4 (Perkin Elmer Life Sciences) for 1 h at 37° C. in a CO2 incubator. When peptide-pulsed targets were used, target cells were incubated with the addition of 20 μg/ml of the peptide for 16 h at 37° C. before the labeling with Na2^51CrO4. Target cells were rinsed and mixed with effectors at a final volume of 0.2 ml in round-bottom microtiter plates. The plates were centrifuged (4 minutes at 800×g) to increase cell-to-cell contact and placed in a CO2 incubator at 37° C. After 4 h of incubation, 0.1 ml of the supernatant was collected from each well and the radioactivity was determined with a gamma counter. In case of evaluating cytotoxicity against target cells that endogenously express RNF43, CXADRL1, or GCUD1, the cytolytic activity was tested in the presence of a 30-fold excess of unlabeled K562 cells to reduce any non-specific lysis due to NK-like effectors. […]
# (§6) The percentage of specific cytotoxicity was determined by calculating the percentage of specific ^51Cr-release by the following formula: {(cpm of the test sample release−cpm of the spontaneous release)/(cpm of the maximum release−cpm of the spontaneous release)}×100. Spontaneous release was determined by incubating the target cells alone in the absence of effectors, and the maximum release was obtained by incubating the targets with 1N HCl. […]
# SNU475 = test: Cytotoxicity of CTLs against tumor cell line SNU475; type: cell-based, human; settings: SNU475 expresses CXADRL1, GCUD1 and HLA-A*0201
# Procedure: as §3, §4
# T2 cells (HLA-A*0201) [3] = test: 51Cr-release cytotoxicity assay of peptide-induced CTLs on T2 cells; settings: for Cytotoxic activity of peptide-induced CTL line/clone on non-pulsed target: T2 not pulsed with any peptide; for Cytotoxic activity of peptide-induced CTL line/clone on peptide-pulsed target: T2 pulsed with the peptide
# Procedure: as §3, §4
# SNU-C4 = test: Cytotoxicity of CTL clone against tumor cell line SNU-C4; settings: HLA-A*0201 but not CXADRL1; RNF43 but little HLA-A24
# Procedure: as §5, §6
# Procedure for DLD-1: as §5, §6
# Procedure for HT29: as §3, §4
# Procedure for TISI cells (HLA-A24/24): as §3, §4
molecule,measurement,setting,value
"5′-CAGCCATCCTGAAAAG-3′ (phosphorothioate, further chemistry not given here) [GCUD1-AS5, antisense S-oligonucleotide]",Viable cells (MTT assay) compared with control S-oligonucleotides,MKN-28 cells,markedly fewer
"5′-CGGCTTACCTCAACCT-3′ (phosphorothioate, further chemistry not given here) [GCUD1-AS8, antisense S-oligonucleotide]",Viable cells (MTT assay) compared with control S-oligonucleotides,MKN-28 cells,markedly fewer
"5′-CTACTCACCGTGCAGA-3′ (phosphorothioate, further chemistry not given here) [CXADRL1-AS4, antisense S-oligonucleotide]",Viable cells (MTT assay) compared with control S-oligonucleotides,[1],markedly fewer
"5′-TGCAACACCTACAGAA-3′ (phosphorothioate, further chemistry not given here) [CXADRL1-AS5, antisense S-oligonucleotide]",Viable cells (MTT assay) compared with control S-oligonucleotides,[1],markedly fewer
"CC(C)C[C@H](NC(=O)[C@@H](N)CS)C(=O)N[C@@H](Cc1c[nH]cn1)C(=O)N[C@@H](CCC(=O)O)C(=O)N[C@@H](Cc1ccccc1)C(=O)N[C@@H](Cc1c[nH]cn1)C(=O)N[C@@H](CCCNC(=N)N)C(=O)N[C@@H](CC(N)=O)C(=O)N[C@@H](CS)C(=O)N[C@H](C(=O)O)C(C)C [RNF43-290, CLHEFHRNCV] (H-CLHEFHRNCV-OH)",Cytotoxicity(%) ×2 Pep(+),T2 cells (HLA-A*0201) [2],2.7%
same,Cytotoxicity(%) ×2 Pep(−),T2 cells (HLA-A*0201) [2],3.7%
same,Cytotoxicity(%) ×20 Pep(+),T2 cells (HLA-A*0201) [2],9.6%
same,Cytotoxicity(%) ×20 Pep(−),T2 cells (HLA-A*0201) [2],9.7%
"ALSSGLYQC [CXADRL1-207, ALSSGLYQC]",Cytotoxicity of CTL clone against SNU475 with anti-HLA-Class I antibody and anti-CD8 antibody,SNU475 cells,significantly inhibited
same,Cytotoxic activity of CTL clone against MKN74,MKN74,not against
same,Cytotoxic activity of peptide-induced CTLs against SNU475,SNU475,potent cytotoxic activity
same,Cytotoxic activity of peptide-induced CTL line/clone on non-pulsed target,T2 cells (HLA-A*0201) [3],without showing any cytotoxic activity
same,Cytotoxic activity of peptide-induced CTL line/clone on peptide-pulsed target,T2 cells (HLA-A*0201) [3],very potent cytotoxic activity
same,Cytotoxic activity of CTL clone against SNU-C4,SNU-C4,not against
"ALSSGLYQV [CXADRL1-9V, ALSSGLYQV]",Cytotoxic activity of peptide-induced CTLs against SNU475,SNU475,killed
"ALWPWLLMA [RNF43-11, ALWPWLLMA]",Cytotoxic activity of CTL clone on HT29,HT29,no significant cytotoxic activity
same,Cytotoxic activity of CTL clone on DLD-1,DLD-1,high cytotoxic activity
"ALWPWLLMAT [RNF43-11, ALWPWLLMAT]",Cytotoxic activity of CTL clone on HT29,HT29,no significant cytotoxic activity
same,Cytotoxic activity of CTL clone on DLD-1,DLD-1,high cytotoxic activity
same,Cytotoxic activity of peptide-induced CTL line/clone on peptide-pulsed target,T2 cells (HLA-A*0201) [2],higher cytotoxic activity
"FLTTASGVSV [GCUD1-272, FLTTASGVSV]",Cytotoxic activity of peptide-induced CTL line/clone on non-pulsed target,T2 cells (HLA-A*0201) [3],without showing any cytotoxic activity
same,Cytotoxic activity of peptide-induced CTL line/clone on peptide-pulsed target,T2 cells (HLA-A*0201) [3],very potent cytotoxic activity
"GFGRTGLVL [RNF43-24, GFGRTGLVL]",Cytotoxicity of CTL lines (9mer) ×2 Pep(+),TISI cells (HLA-A24/24),1%
same,Cytotoxicity of CTL lines (9mer) ×2 Pep(−),TISI cells (HLA-A24/24),2%
same,Cytotoxicity of CTL lines (9mer) ×20 Pep(+),TISI cells (HLA-A24/24),8%
same,Cytotoxicity of CTL lines (9mer) ×20 Pep(−),TISI cells (HLA-A24/24),9%
"GLTWPVVLI [RNF43-156, GLTWPVVLI]",Cytotoxicity(%) ×2 Pep(+),T2 cells (HLA-A*0201) [2],−0.5%
same,Cytotoxicity(%) ×2 Pep(−),T2 cells (HLA-A*0201) [2],−0.3%
same,Cytotoxicity(%) ×20 Pep(+),T2 cells (HLA-A*0201) [2],−0.4%
same,Cytotoxicity(%) ×20 Pep(−),T2 cells (HLA-A*0201) [2],0.7%
"HYTPSVAYPW [RNF43-683, HYTPSVAYPW]",Cytotoxicity of CTL lines (10mer) ×2 Pep(+),TISI cells (HLA-A24/24),0%
same,Cytotoxicity of CTL lines (10mer) ×2 Pep(−),TISI cells (HLA-A24/24),−1%
same,Cytotoxicity of CTL lines (10mer) ×20 Pep(+),TISI cells (HLA-A24/24),0%
same,Cytotoxicity of CTL lines (10mer) ×20 Pep(−),TISI cells (HLA-A24/24),0%
"KLMEFVYKN [RNF43-171, KLMEFVYKN]",Cytotoxicity(%) ×2 Pep(+),T2 cells (HLA-A*0201) [2],1.1%
same,Cytotoxicity(%) ×2 Pep(−),T2 cells (HLA-A*0201) [2],−0.5%
same,Cytotoxicity(%) ×20 Pep(+),T2 cells (HLA-A*0201) [2],2.6%
same,Cytotoxicity(%) ×20 Pep(−),T2 cells (HLA-A*0201) [2],0.0%
"KLMQSHPLYL [RNF43-81, KLMQSHPLYL]",Cytotoxic activity of peptide-induced CTL line/clone on peptide-pulsed target,TISI cells (HLA-A24/24),modest cytotoxic activity
same,Cytotoxicity of CTL lines (10mer) ×2 Pep(+),TISI cells (HLA-A24/24),2%
same,Cytotoxicity of CTL lines (10mer) ×2 Pep(−),TISI cells (HLA-A24/24),−3%
same,Cytotoxicity of CTL lines (10mer) ×20 Pep(+),TISI cells (HLA-A24/24),10%
same,Cytotoxicity of CTL lines (10mer) ×20 Pep(−),TISI cells (HLA-A24/24),5%
same,Cytotoxicity(%) ×2 Pep(+),T2 cells (HLA-A*0201) [2],6.3%
same,Cytotoxicity(%) ×2 Pep(−),T2 cells (HLA-A*0201) [2],8.3%
same,Cytotoxicity(%) ×20 Pep(+),T2 cells (HLA-A*0201) [2],18.0%
same,Cytotoxicity(%) ×20 Pep(−),T2 cells (HLA-A*0201) [2],27.6%
"KLNLTLEGV [RNF43-60, KLNLTLEGV]",Cytotoxicity(%) ×2 Pep(+),T2 cells (HLA-A*0201) [2],−1.6%
same,Cytotoxicity(%) ×2 Pep(−),T2 cells (HLA-A*0201) [2],0.0%
same,Cytotoxicity(%) ×20 Pep(+),T2 cells (HLA-A*0201) [2],−2.1%
same,Cytotoxicity(%) ×20 Pep(−),T2 cells (HLA-A*0201) [2],0.2%
